In patent publication US20240325493A1, “REGULATOR OF TUMOR CELL FUNCTIONS AND USES THEREOF” (Washington University, priority 2023, published 2024):

Tests used:
[1] = test system: Zbtb46 in bone marrow-derived dendritic cells (BMDC); assay: Zbtb46 mRNA expression in bone marrow-derived dendritic cells treated with tumor-derived factors; assay type: cell-based, mouse; settings: in vitro, 24 hours, vs PBS
Protocol: FIG. 13B is a graph of Zbtb46 mRNA expression in bone marrow-derived dendritic cells (BMDC) treated with PBS, prostaglandin E2 (PGE2), vascular endothelial growth factor (VEGF), or retinoic acid (RA) for 24 hours. n≥3/group. One-way ANOVA with Dunnett's test.
(§1) Quantitative real-time reverse transcription PCR (qRT-PCR) was performed. cDNA was prepared with qScript™ CDNA SuperMix (Cat: 101414-106, VWR) according to the manufacturer's protocol. Gene expression was measured by quantitative real-time RT-PCR using primers.

[2] = test system: Zbtb46 in MCEC (mouse cardiac endothelial cells); assay: Zbtb46 mRNA expression in MCEC cells treated with tumor-derived factors; assay type: cell-based; settings: in vitro, 24 hours
Protocol: FIG. 13A is a set of graphs of Zbtb46 mRNA expression in MCEC cells, with loading control b-Actin (left) and Gapdh (right), treated with PBS or tumor-conditioned media (TCM) for 24 hours. n≥3/group. One-way ANOVA with Dunnett's test.
as §1

Row | Molecule | Zbtb46 expression in DC [1] | Zbtb46 expression in EC [2]
1 | VEGF | downregulated | downregulated
2 | CCCCC[C@H](O)/C=C/[C@H]1[C@H](O)CC(=O)[C@@H]1C/C=C\CCCC(=O)O [PGE2, prostaglandin E2] | downregulated | downregulated
